Columns and labels:
[1] = system: human liver carcinoma HepG2 cells; assay: MTT cytotoxicity assay against HepG2 cells; format: cell-based; conditions: for Structure–activity summary of cytotoxic activity (Fig. 4B) / IC50: HepG2 cells; for IC50: MTT, 24 h treatment
Procedure: To assess the antitumor properties of these compounds, we utilized the 3-(4,5-dimethylthiazol-2-yl)-2,5-diphenyl tetrazolium bromide (MTT) colorimetric assay, a widely used method to evaluate cell viability and cytotoxicity.
Following the incubation period, the cells were subjected to various concentrations of the prepared molecules and subsequently incubated for a duration of 24 h. […] Subsequently, a volume of 100 μL of dimethyl sulfoxide (DMSO) was introduced into each well in order to facilitate the dissolution of the purple formazan that had been generated. The quantification of the color intensity of the formazan product, which serves as an indicator of the cellular growth condition, is performed by employing an ELISA plate reader set at a wavelength of 570 nm. The experimental conditions were implemented with a minimum of three replicates, and the experiments were conducted on at least three separate occasions.

SMILES | Structure–activity summary of cytotoxic activity (Fig. 4B) [1] | IC50 [1] [µM] | IC50 ([1]; Homo sapiens, HepG2, 24 h) [µM] | HepG2-Cell Viability (%) ([1]; concentration LogC 0.19 (µM)) | HepG2-Cell Viability (%) ([1]; concentration LogC 0.8 (µM)) | HepG2-Cell Viability (%) ([1]; concentration LogC 1.4 (µM)) | HepG2-Cell Viability (%) ([1]; concentration LogC 2 (µM)) | HepG2-Cell Viability (%) ([1]; concentration LogC -0.41 (µM)) | melting point [°C]
COc1cccc2cc(C(N)=O)c(=O)oc12 [Compound 4, 8-Methoxycoumarin-3-carboxamide] | moderate activity | 17.2 ± 1.05 | 17 | 65.8±1.73 | 57.78±2.46 | 47.29±3.09 | 37.94±2.75 | 75.81±1.48 | 253
COc1cccc2cc(C(=O)NC(C)=O)c(=O)oc12 [Compound 6, N-acetyl 8-methoxycoumarin-3-carboxamide] | moderate activity |  |  | 54.47±1.72 | 44.64±1.98 | 37.53±2.14 | 27.04±2.87 | 59.86±1.33 | 285
COc1ccc(Br)c2cc(C(=O)NC(C)=O)c(=O)oc12 [Compound 7, N-acetyl 5-bromo-8-methoxycoumarin-3-carboxamide] | improved activity | 2.57 ± 0.16 | 2.3 | 68.52±2.36 | 60.52±2.64 | 53.19±2.87 | 45.03±3.1 | 77.18±1.73 | 220
COc1cccc2cc(C(=O)O)c(=O)oc12 [Compound 8, 8-methoxycoumarin-3-carboxylic acid] | moderate activity | 5.18 ± 0.31 | 5 |  |  |  |  |  | 186
COc1ccc(Br)c2cc(C(=O)O)c(=O)oc12 [Compound 9, 5-Bromo-8-methoxycoumarin-3-carboxylic acid] | attenuated activity | 41.6 ± 2.52 | 41 | 66.86±1.86 | 55.34±2.24 | 50.19±3.07 | 42.17±2.94 | 73.23±1.47 | 210

— paper PMC10693084, “Novel 8-Methoxycoumarin-3-Carboxamides with potent anticancer activity against liver cancer via targeting caspase-3/7 and β-tubulin polymerization” (BMC Chemistry, 2023)
